{"source": "patent US20220380801A1", "about": "“TRIPARTITE SYSTEMS FOR PROTEIN DIMERIZATION AND METHODS OF USE” (priority 2019, published 2022)", "key": {"MED18852 expression": {"test_system": "MED18852 expression", "assay": "Transcriptional regulation assay, antibody (MED18852) expression", "type": "cell-based, human", "settings": "DBD-PRSIM_23 (three tandem copies); 48 hours after simeprevir", "source_text": "The DNA sequence encoding MED18852 (SEQ ID NO: 237 and SEQ ID NO: 238, separated by an internal ribosome entry site (IRES) sequence) was purchased as a as a DNA string from GeneArt and cloned into the pZFHD1-2 vector (Takara) downstream of the ZFHD1 inducible promoter using Gibson assembly cloning. The nucleotide sequence of the final construct was confirmed by sequencing.\nFor the quantification of antibody expression (MED18852) utilising the transcriptional regulation assay, the cells were co-transfected with a pHet-Act1-2 plasmid (containing the HCV NS3/4A PR (S139A):PRSIM_23) and a pZFHD1 plasmid (encoding MED18852); 24 hours later wells were treated with different concentrations of simeprevir. Antibody concentration was determined in the supernatants 48 hours post the addition of simeprevir using MSD kit (Singleplex Human/NHP IgG Isotyping Kit (Mesoscale)."}, "HCV NS3/4A D168E PR": {"target": "HCV NS3/4A D168E PR (Hepatitis C virus subtype 1a, UniProt A8DG50, A1066T/D1194E/I1043Q/I1044E/L1039E/L1040E/L1047Q/S1165A, form not given)", "assay": "Octet RED384 simeprevir affinity", "type": "binding", "procedure": "(§1) The biotinylated HCV NS3/4A PR (S139A), HCV NS3/4A K136D PR, HCV NS3/4A K136N PR and HCV NS3/4A D168E PR were loaded on High Precision Streptavidin (SAX) biosensors at a concentration of 2 μg/ml in 10 mM Hepes pH 7.4, 150 mM NaCl, 0.05% Surfactant P20, 0.3% DMSO. The simeprevir was diluted […] (46.88-3,000 nM) in the same buffer and the loaded biosensors were dipped into the simeprevir samples for 180 sec to measure the association. For the dissociation the biosensors were dipped into the buffer for 600 sec. The traces were analysed using ForteBio Data Analysis software and fit globally using a 1:1 binding model."}, "HCV NS3/4A PR (S139A)": {"target": "HCV NS3/4A PR (S139A) (Hepatitis C virus subtype 1a, UniProt A8DG50, A1066T/I1043Q/I1044E/L1039E/L1040E/L1047Q/S1165A, form not given)", "assay": "Octet RED384 simeprevir affinity", "type": "binding", "settings": "WT (S139A)", "procedure": "as §1"}, "HCV NS3/4A K136D PR": {"target": "HCV NS3/4A K136D PR (Hepatitis C virus subtype 1a, UniProt A8DG50, A1066T/I1043Q/I1044E/K1162D/L1039E/L1040E/L1047Q/S1165A, form not given)", "assay": "Octet RED384 simeprevir affinity", "type": "binding", "procedure": "as §1"}, "HCV NS3/4A K136N PR": {"target": "HCV NS3/4A K136N PR (Hepatitis C virus subtype 1a, UniProt A8DG50, A1066T/I1043Q/I1044E/K1162N/L1039E/L1040E/L1047Q/S1165A, form not given)", "assay": "Octet RED384 simeprevir affinity", "type": "binding", "procedure": "as §1"}, "hESC line Sa121": {"test_system": "hESC line Sa121", "assay": "PRSIM-based kill switch activity in ESC cells (confluency)", "type": "cell-based, human", "procedure": "The hESC line Sa121 (TakaraBio Europe) was also transduced with the lentiviral particles encoding the PRSIM-based kill switch fusion protein described above (SEQ ID 223). Cells (passage 19) were plated at 3.5×10^5 cells/cm^2 in the DEF-CS culture system, and the cells were transduced 30 h later. 24 h after transduction, puromycin selection was initiated and the antibiotic selection was maintained until a stable cell pool was achieved.\nTo test the induction of the kill switch in Sa121 ES cells, the cells were plated at 3.5×10^5/cm^2 two days before inducing kill switch activity by treating with simeprevir at concentrations from 10 nm to 1 uM. The cells were imaged using the Incucyte S3 (EssenBioscience) at intervals ranging from 10-20 min; kill switch efficiency was quantified by image analysis of confluency."}, "[1]": {"test_system": "HCT116 cells stably expressing the PRSIM-based kill switch", "assay": "Kill switch cell viability (phase contrast)", "type": "cell-based, human", "settings": "100 nM simeprevir, wt kill switch", "procedure": "(§2) HCT116 and HT29 transduced cells were generated following the same protocol with exception of using McCoy's 5A medium+10% foetal bovine serum as growth medium, supplemented with 2 μg/ml puromycin for selection of transduced cells.\n(§3) HEK293, HCT116 or HT29 cells stably expressing the PRSIM-based kill switch fusion protein (SEQ ID NO: 223) or HEK293 cells stably expressing the PRSIM kill switch S196A mutant fusion protein (SEQ ID NO: 230) were plated onto collagen-coated 96-well plates and 24 h later treated with 100 nM simeprevir. Phase contrast images were acquired at various timepoints using 10× or 20× objectives on an Incucyte Zoom (EssenBioscience)."}, "[2]": {"test_system": "HT29 cells stably expressing the PRSIM-based kill switch", "assay": "Kill switch cell viability (phase contrast)", "type": "cell-based, human", "settings": "100 nM simeprevir, wt kill switch", "procedure": "as §2, §3"}}, "data": [{"molecule": "COc1ccc2c(O[C@@H]3C[C@H]4C(=O)N[C@]5(C(=O)NS(=O)(=O)C6CC6)C[C@H]5/C=C\\CCCCN(C)C(=O)[C@@H]4C3)cc(-c3nc(C(C)C)cs3)nc2c1C", "note": "[simeprevir]", "values": [{"measurement": "expression of MED18852", "setting": "MED18852 expression", "value": "dependent on the dose of simeprevir"}, {"measurement": "Kd", "setting": "HCV NS3/4A D168E PR", "value": 33, "unit": "nM"}, {"measurement": "decreased simeprevir affinity compared to ‘WT’ (S139A)", "setting": "HCV NS3/4A D168E PR", "value": "~2", "unit": "fold"}, {"measurement": "koff", "setting": "HCV NS3/4A D168E PR", "value": 0.000665, "unit": "s⁻¹"}, {"measurement": "kon", "setting": "HCV NS3/4A D168E PR", "value": 20000, "unit": "M⁻¹ s⁻¹"}, {"measurement": "Kd", "setting": "HCV NS3/4A PR (S139A)", "value": 17.8, "unit": "nM"}, {"measurement": "koff", "setting": "HCV NS3/4A PR (S139A)", "value": 0.000495, "unit": "s⁻¹"}, {"measurement": "kon", "setting": "HCV NS3/4A PR (S139A)", "value": 27800, "unit": "M⁻¹ s⁻¹"}, {"measurement": "Kd", "setting": "HCV NS3/4A K136D PR", "value": 62.6, "unit": "nM"}, {"measurement": "decreased simeprevir affinity compared to ‘WT’ (S139A)", "setting": "HCV NS3/4A K136D PR", "value": "~3.5", "unit": "fold"}, {"measurement": "koff", "setting": "HCV NS3/4A K136D PR", "value": 0.00234, "unit": "s⁻¹"}, {"measurement": "kon", "setting": "HCV NS3/4A K136D PR", "value": 36200, "unit": "M⁻¹ s⁻¹"}, {"measurement": "Kd", "setting": "HCV NS3/4A K136N PR", "value": 31.5, "unit": "nM"}, {"measurement": "decreased simeprevir affinity compared to ‘WT’ (S139A)", "setting": "HCV NS3/4A K136N PR", "value": "~2", "unit": "fold"}, {"measurement": "koff", "setting": "HCV NS3/4A K136N PR", "value": 0.00107, "unit": "s⁻¹"}, {"measurement": "kon", "setting": "HCV NS3/4A K136N PR", "value": 33800, "unit": "M⁻¹ s⁻¹"}, {"measurement": "cell killing", "setting": "hESC line Sa121; 10 nM simeprevir, 4 hours timeframe", "value": "maximal cell killing was not reached"}, {"measurement": "cell killing", "setting": "hESC line Sa121; 100 nM simeprevir, within 4 hours", "value": "~90", "unit": "%"}, {"measurement": "onset of cell killing", "setting": "hESC line Sa121; 1 μM simeprevir", "value": "~15", "unit": "min"}, {"measurement": "cells eliminated (cell confluency)", "setting": "hESC line Sa121; 1 μM simeprevir, within 4 hours, kill switch-transduced Sa121", "value": "up to 95%"}, {"measurement": "response to simeprevir", "setting": "hESC line Sa121; wt (non-transduced) Sa121 cells", "value": "did not respond to treatment with simeprevir"}, {"measurement": "cell death", "setting": "[1]", "value": "rapid cell death"}, {"measurement": "cell death", "setting": "[2]", "value": "rapid cell death"}]}]}
